According to publication PMC13210772, “Dual FLT3/MAPK14 Proteolysis-Targeting Chimera (PROTAC) Induces Potent Acute Myeloid Leukemia Cell Death” (Pharmaceuticals, 2026):

What was measured:
Test in all cases: NanoBRET CELLinib128
Type in all cases: binding
BTK = target: T1, BTK (Homo sapiens, UniProt Q06187); conditions: 1 µM; 100% no effect, 0% complete tracer displacement
T1 construct: Full-length kinase ORF (Promega, Madison, WI, USA) cloned in frame with a NanoLuc-vector was transfected into HEK293T cells; host or cells: HEK293T
Method: (§1) To get an impression about the binding strength of the PROTAC MA191 and the reference inhibitor MA68 to other kinases besides FLT3-ITD the binding on a kinase panel of further 128 representative protein kinases at 1 μM concentration was tested using the NanoBRET^TM cellular target engagement assay (CELLinib128 assay, CELLinib GmbH, Frankfurt, Germany). […] In none of the 128 kinases MA191 was able to displace the tracer (inhibitor) used by more than 50%, Table S1, Supplementary Information).
(§2) The CELLinib128 assay was performed by CELLinib GmbH, Frankfurt (Germany) as described previously. In brief: Full-length kinase ORF (Promega, Madison, WI, USA) cloned in frame with a NanoLuc-vector was transfected into HEK293T cells in Opti-MEM without phenol red (Life Technologies, Carlsbad, CA, USA) at a density of 2 × 10^5 cells/mL using FuGENE HD (Promega, E2312) and proteins were allowed to express for 20 h. For CDKs, where indicated below, an excess of an activator without an NLuc-fusion was cotransfected. […] The system was allowed to equilibrate at 37 °C for 2 h and 5% CO2 prior to BRET measurements. For PKCs, a chemical activator PMA was added in a final concentration of 1 µM was added together with test compounds and tracers (Promega, V1171). To measure BRET, NanoBRET^TM NanoGlo substrate + extracellular NanoLuc inhibitor (Promega, N2160) were added as per the manufacturer’s protocol, and filtered luminescence was measured (450 nm BP filter (donor) and 610 nm LP filter (acceptor)). For the 1-shot test compounds, data were normalized to the tracer control and the background control or control compound plateau and an average and SD were calculated. […] For the control compounds competitive displacement data were normalized to the tracer Ctrl and the background Ctrl and then plotted and fitted using GraphPad Prism 10 software using a normalized 3-parameter curve fit with the following equation: Y = 100/(1 + 10^X−LogIC50).

TNK2 = target: T2, TNK2 (Homo sapiens, UniProt Q07912); conditions: 100% no effect, 0% complete tracer displacement, read-out: Tracer bound
T2 construct: Full-length kinase ORF (Promega, Madison, WI, USA) cloned in frame with a NanoLuc-vector; host or cells: HEK293T
Method: as §1, §2

FGFR4 = target: T3, FGFR4 (Homo sapiens, UniProt P22455); conditions: 100% no effect, 0% complete tracer displacement, read-out: Tracer bound
T3 construct: Full-length kinase ORF (Promega, Madison, WI, USA) cloned in frame with a NanoLuc-vector was transfected into HEK293T cells; host or cells: HEK293T
Method: as §1, §2

NEK9 = target: T4, NEK9 (Homo sapiens, UniProt Q8TD19); conditions: 100% no effect, 0% complete tracer displacement, read-out: Tracer bound
T4 construct: Full-length kinase ORF (Promega, Madison, WI, USA) cloned in frame with a NanoLuc-vector was transfected into HEK293T cells; host or cells: HEK293T
Method: as §1, §2

WEE2 = target: T5, WEE2 (Homo sapiens, UniProt P0C1S8); conditions: 100% no effect, 0% complete tracer displacement, read-out: Tracer bound
T5 construct: Full-length kinase ORF (Promega, Madison, WI, USA) cloned in frame with a NanoLuc-vector; host or cells: HEK293T
Method: as §1, §2

STK3 = target: T6, STK3 (Homo sapiens, UniProt Q13188); conditions: 100% no effect, 0% complete tracer displacement, read-out: Tracer bound
T6 construct: Full-length kinase ORF (Promega, Madison, WI, USA) cloned in frame with a NanoLuc-vector was transfected into HEK293T cells; host or cells: HEK293T
Method: as §1, §2

CSNK1G2 = target: T7, CSNK1G2 (Homo sapiens, UniProt P78368); conditions: 1 µM; 100% no effect, 0% complete tracer displacement
T7 construct: Full-length kinase ORF (Promega, Madison, WI, USA) cloned in frame with a NanoLuc-vector was transfected into HEK293T cells; host or cells: HEK293T
Method: as §1, §2

MAP4K2 = target: T8, MAP4K2 (Homo sapiens, UniProt Q12851); conditions: 100% no effect, 0% complete tracer displacement, read-out: Tracer bound
T8 construct: Full-length kinase ORF (Promega, Madison, WI, USA) cloned in frame with a NanoLuc-vector was transfected into HEK293T cells; host or cells: HEK293T
T8 sequence (Q12851 whole entry): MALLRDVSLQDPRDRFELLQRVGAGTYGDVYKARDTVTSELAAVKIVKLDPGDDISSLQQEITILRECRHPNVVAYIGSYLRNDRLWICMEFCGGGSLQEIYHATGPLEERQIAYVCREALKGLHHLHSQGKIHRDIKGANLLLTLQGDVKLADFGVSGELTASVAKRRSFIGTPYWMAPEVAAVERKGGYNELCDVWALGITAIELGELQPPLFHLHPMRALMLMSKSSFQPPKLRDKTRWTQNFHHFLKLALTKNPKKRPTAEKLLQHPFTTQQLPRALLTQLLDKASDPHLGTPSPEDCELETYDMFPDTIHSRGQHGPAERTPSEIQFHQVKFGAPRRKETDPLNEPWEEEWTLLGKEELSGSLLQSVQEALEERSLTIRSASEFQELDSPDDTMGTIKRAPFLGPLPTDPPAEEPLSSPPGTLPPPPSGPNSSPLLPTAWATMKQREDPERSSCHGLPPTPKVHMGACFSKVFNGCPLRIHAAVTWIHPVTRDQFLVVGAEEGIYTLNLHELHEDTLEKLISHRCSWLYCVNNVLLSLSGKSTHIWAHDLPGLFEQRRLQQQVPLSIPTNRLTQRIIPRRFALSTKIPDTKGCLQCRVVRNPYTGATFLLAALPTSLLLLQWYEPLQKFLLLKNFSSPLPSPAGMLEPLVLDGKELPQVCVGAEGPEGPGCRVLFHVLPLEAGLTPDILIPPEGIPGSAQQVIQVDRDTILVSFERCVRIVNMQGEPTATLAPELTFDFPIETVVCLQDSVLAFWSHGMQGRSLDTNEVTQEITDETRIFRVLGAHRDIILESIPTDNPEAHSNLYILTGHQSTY
Method: as §1, §2

TYK2 = target: T9, TYK2 (Homo sapiens, UniProt P29597); conditions: 1 µM; 100% no effect, 0% complete tracer displacement
T9 construct: Full-length kinase ORF (Promega, Madison, WI, USA) cloned in frame with a NanoLuc-vector; host or cells: HEK293T
Method: as §1, §2

CDK5-CDK5R2 = target: T10, CDK5-CDK5R2 (Homo sapiens, UniProt Q00535); conditions: 100% no effect, 0% complete tracer displacement, read-out: Tracer bound
T10 construct: Full-length kinase ORF (Promega, Madison, WI, USA) cloned in frame with a NanoLuc-vector was transfected into HEK293T cells; host or cells: HEK293T
Method: as §1, §2

RPS6KA3 = target: T11, RPS6KA3 (Homo sapiens, UniProt P51812); conditions: 100% no effect, 0% complete tracer displacement, read-out: Tracer bound
T11 construct: Full-length kinase ORF (Promega, Madison, WI, USA) cloned in frame with a NanoLuc-vector was transfected into HEK293T cells; host or cells: HEK293T
Method: as §1, §2

IRAK4 = target: T12, IRAK4 (Homo sapiens, UniProt Q9NWZ3); conditions: 1 µM; 100% no effect, 0% complete tracer displacement
T12 construct: Full-length kinase ORF (Promega, Madison, WI, USA) cloned in frame with a NanoLuc-vector was transfected into HEK293T cells; host or cells: HEK293T
T12 sequence (Q9NWZ3 whole entry): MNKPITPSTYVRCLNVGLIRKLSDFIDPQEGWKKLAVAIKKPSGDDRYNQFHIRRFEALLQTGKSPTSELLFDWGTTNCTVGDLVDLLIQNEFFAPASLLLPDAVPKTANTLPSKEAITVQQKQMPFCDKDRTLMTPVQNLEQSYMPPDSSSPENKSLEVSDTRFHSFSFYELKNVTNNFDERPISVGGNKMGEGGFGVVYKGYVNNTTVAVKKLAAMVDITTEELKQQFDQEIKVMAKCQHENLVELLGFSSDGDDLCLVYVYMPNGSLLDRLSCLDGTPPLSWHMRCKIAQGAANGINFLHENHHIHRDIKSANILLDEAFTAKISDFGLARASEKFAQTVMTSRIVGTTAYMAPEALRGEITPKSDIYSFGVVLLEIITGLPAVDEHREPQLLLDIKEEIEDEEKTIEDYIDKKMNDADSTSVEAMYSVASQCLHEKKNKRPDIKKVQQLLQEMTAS
Method: as §1, §2

LIMK2 = target: T13, LIMK2 (Homo sapiens, UniProt P53671); conditions: 100% no effect, 0% complete tracer displacement, read-out: Tracer bound
T13 construct: Full-length kinase ORF (Promega, Madison, WI, USA) cloned in frame with a NanoLuc-vector was transfected into HEK293T cells; host or cells: HEK293T
Method: as §1, §2

STK36 = target: T14, STK36 (Homo sapiens, UniProt Q9NRP7); conditions: 100% no effect, 0% complete tracer displacement, read-out: Tracer bound
T14 construct: Full-length kinase ORF (Promega, Madison, WI, USA) cloned in frame with a NanoLuc-vector was transfected into HEK293T cells; host or cells: HEK293T
T14 sequence (Q9NRP7 whole entry): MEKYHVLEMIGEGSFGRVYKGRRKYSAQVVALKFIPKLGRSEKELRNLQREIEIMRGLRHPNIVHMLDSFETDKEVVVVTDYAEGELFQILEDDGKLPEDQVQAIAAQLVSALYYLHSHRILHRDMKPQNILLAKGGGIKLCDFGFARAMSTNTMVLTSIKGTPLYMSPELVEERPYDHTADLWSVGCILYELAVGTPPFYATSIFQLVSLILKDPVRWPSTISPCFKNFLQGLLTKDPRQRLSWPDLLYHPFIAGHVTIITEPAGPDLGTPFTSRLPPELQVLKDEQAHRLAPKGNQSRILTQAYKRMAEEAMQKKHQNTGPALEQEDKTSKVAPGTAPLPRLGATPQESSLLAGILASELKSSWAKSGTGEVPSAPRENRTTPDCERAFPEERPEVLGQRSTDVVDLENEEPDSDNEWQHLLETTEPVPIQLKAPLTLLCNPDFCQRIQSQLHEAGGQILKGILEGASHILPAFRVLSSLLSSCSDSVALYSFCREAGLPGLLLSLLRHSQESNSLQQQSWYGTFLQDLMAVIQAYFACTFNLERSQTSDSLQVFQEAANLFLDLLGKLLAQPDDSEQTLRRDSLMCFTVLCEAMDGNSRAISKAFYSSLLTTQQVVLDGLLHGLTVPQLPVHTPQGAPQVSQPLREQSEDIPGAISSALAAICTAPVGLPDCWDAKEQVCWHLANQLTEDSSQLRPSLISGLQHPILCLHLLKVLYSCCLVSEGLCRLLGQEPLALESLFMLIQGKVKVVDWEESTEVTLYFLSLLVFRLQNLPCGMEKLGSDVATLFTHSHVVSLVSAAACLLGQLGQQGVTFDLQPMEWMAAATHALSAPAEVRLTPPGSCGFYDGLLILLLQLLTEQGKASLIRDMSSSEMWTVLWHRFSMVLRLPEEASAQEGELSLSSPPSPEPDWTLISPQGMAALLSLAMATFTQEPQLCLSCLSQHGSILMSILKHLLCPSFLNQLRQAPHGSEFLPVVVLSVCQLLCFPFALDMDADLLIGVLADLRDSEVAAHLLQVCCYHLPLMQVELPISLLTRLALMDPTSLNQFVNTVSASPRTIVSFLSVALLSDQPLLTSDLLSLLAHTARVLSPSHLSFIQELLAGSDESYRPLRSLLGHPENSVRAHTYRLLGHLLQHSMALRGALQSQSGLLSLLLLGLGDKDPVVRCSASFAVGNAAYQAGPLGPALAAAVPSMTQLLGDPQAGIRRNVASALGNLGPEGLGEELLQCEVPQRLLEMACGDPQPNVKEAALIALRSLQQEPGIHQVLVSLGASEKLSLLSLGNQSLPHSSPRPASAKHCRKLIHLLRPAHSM
Method: as §1, §2

PRKCD-PMA = target: T15, PRKCD-PMA (Homo sapiens, UniProt Q05655); conditions: 100% no effect, 0% complete tracer displacement, read-out: Tracer bound
T15 construct: Full-length kinase ORF (Promega, Madison, WI, USA) cloned in frame with a NanoLuc-vector was transfected into HEK293T cells; host or cells: HEK293T
T15 sequence (Q05655 whole entry): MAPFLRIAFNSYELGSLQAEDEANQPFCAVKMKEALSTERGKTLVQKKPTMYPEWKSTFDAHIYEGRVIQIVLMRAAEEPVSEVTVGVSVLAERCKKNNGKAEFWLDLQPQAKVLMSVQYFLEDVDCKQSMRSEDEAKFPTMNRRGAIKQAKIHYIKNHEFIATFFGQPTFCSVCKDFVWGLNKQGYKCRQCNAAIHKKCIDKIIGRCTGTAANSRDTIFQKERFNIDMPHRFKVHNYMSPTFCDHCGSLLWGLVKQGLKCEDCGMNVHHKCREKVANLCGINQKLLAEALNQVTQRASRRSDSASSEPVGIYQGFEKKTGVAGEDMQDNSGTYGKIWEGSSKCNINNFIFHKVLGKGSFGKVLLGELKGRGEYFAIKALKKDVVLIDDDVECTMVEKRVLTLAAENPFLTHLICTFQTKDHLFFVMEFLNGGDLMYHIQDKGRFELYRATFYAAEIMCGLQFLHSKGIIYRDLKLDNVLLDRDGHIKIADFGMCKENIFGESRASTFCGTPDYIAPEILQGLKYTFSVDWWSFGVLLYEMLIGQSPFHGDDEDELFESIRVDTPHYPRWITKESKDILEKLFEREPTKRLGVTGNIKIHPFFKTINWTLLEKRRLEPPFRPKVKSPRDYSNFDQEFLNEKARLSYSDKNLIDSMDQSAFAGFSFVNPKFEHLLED
Method: as §1, §2

MLTK = target: T16, MLTK (Homo sapiens, UniProt Q9NYL2); conditions: 100% no effect, 0% complete tracer displacement, read-out: Tracer bound
T16 construct: Full-length kinase ORF (Promega, Madison, WI, USA) cloned in frame with a NanoLuc-vector was transfected into HEK293T cells; host or cells: HEK293T
Method: as §1, §2

CDK14-CCNY = target: T17, CDK14-CCNY (Homo sapiens, UniProt O94921); conditions: 1 µM; 100% no effect, 0% complete tracer displacement
T17 construct: Full-length kinase ORF (Promega, Madison, WI, USA) cloned in frame with a NanoLuc-vector was transfected into HEK293T cells; host or cells: HEK293T
Method: as §1, §2

PRKACB = target: T18, PRKACB (Homo sapiens, UniProt P22694); conditions: 100% no effect, 0% complete tracer displacement, read-out: Tracer bound
T18 construct: Full-length kinase ORF (Promega, Madison, WI, USA) cloned in frame with a NanoLuc-vector was transfected into HEK293T cells; host or cells: HEK293T
Method: as §1, §2

ERN1 = target: T19, ERN1 (Homo sapiens, UniProt O75460); conditions: 100% no effect, 0% complete tracer displacement, read-out: Tracer bound
T19 construct: Full-length kinase ORF (Promega, Madison, WI, USA) cloned in frame with a NanoLuc-vector was transfected into HEK293T cells; host or cells: HEK293T
T19 sequence (O75460 19-977): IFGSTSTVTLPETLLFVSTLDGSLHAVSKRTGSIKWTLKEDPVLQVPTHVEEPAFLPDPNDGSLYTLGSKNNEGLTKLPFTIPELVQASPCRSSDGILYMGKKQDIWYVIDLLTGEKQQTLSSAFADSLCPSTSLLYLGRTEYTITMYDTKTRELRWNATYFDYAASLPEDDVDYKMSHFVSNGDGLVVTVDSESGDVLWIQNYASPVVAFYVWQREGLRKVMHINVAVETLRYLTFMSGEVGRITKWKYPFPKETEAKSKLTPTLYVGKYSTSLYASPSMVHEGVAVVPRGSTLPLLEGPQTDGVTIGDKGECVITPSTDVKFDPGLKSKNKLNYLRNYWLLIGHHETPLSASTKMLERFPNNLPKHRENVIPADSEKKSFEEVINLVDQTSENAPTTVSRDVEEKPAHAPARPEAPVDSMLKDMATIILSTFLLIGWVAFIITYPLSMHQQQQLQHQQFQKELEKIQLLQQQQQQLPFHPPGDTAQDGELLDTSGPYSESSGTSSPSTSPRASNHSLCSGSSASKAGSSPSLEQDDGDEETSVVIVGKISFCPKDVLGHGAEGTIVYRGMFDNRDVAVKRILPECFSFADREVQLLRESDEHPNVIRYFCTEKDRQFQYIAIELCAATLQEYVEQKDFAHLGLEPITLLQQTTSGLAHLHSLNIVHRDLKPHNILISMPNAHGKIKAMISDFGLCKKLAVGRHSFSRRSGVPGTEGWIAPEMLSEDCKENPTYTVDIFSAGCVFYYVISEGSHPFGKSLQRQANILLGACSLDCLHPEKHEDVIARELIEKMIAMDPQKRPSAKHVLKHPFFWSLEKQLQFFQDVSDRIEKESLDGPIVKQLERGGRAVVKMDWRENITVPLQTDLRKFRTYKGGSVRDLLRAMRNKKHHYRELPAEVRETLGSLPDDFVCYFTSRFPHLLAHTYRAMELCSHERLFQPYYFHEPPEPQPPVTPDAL
Method: as §1, §2

MUSK = target: T20, MUSK (Homo sapiens, UniProt O15146); conditions: 100% no effect, 0% complete tracer displacement, read-out: Tracer bound
T20 construct: Full-length kinase ORF (Promega, Madison, WI, USA) cloned in frame with a NanoLuc-vector was transfected into HEK293T cells; host or cells: HEK293T
T20 sequence (O15146 24-869): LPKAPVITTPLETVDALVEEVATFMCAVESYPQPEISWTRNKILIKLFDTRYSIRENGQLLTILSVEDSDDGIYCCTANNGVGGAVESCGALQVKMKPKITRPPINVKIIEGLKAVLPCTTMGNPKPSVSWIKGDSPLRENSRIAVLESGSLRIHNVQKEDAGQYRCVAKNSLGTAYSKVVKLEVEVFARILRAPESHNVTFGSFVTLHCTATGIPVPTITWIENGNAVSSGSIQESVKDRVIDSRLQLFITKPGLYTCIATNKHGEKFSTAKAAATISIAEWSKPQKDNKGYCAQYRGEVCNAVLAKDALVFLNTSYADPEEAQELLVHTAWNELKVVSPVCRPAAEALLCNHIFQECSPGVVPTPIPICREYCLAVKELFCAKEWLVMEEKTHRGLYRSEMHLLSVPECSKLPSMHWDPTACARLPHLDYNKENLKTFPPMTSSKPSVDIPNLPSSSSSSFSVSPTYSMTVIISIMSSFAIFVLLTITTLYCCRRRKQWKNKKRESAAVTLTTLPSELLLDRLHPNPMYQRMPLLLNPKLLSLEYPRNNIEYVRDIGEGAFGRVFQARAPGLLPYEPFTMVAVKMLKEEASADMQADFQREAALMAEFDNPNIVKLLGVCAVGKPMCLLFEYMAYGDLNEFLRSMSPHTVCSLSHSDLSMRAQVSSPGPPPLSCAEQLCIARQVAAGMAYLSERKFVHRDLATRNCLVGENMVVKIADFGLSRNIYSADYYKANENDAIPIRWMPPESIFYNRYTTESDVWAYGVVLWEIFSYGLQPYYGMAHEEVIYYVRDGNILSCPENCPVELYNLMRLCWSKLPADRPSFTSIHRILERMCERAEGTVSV
Method: as §1, §2

CSNK2A2 = target: T21, CSNK2A2 (Homo sapiens, UniProt P19784); conditions: 100% no effect, 0% complete tracer displacement, read-out: Tracer bound
T21 construct: Full-length kinase ORF (Promega, Madison, WI, USA) cloned in frame with a NanoLuc-vector was transfected into HEK293T cells; host or cells: HEK293T
Method: as §1, §2

PHKG1 = target: T22, PHKG1 (Homo sapiens, UniProt Q16816); conditions: 100% no effect, 0% complete tracer displacement, read-out: Tracer bound
T22 construct: Full-length kinase ORF (Promega, Madison, WI, USA) cloned in frame with a NanoLuc-vector was transfected into HEK293T cells; host or cells: HEK293T
Method: as §1, §2

TRKA = target: T23, TRKA (Homo sapiens, UniProt P04629); conditions: 100% no effect, 0% complete tracer displacement, read-out: Tracer bound
T23 construct: Full-length kinase ORF (Promega, Madison, WI, USA) cloned in frame with a NanoLuc-vector; host or cells: HEK293T
Method: as §1, §2

DCLK3 = target: T24, DCLK3 (Homo sapiens, UniProt Q9C098); conditions: 100% no effect, 0% complete tracer displacement, read-out: Tracer bound
T24 construct: Full-length kinase ORF (Promega, Madison, WI, USA) cloned in frame with a NanoLuc-vector was transfected into HEK293T cells; host or cells: HEK293T
Method: as §1, §2

SRMS = target: T25, SRMS (Homo sapiens, UniProt Q9H3Y6); conditions: 100% no effect, 0% complete tracer displacement, read-out: Tracer bound
T25 construct: Full-length kinase ORF (Promega, Madison, WI, USA) cloned in frame with a NanoLuc-vector was transfected into HEK293T cells; host or cells: HEK293T
Method: as §1, §2

NUAK1 = target: T26, NUAK1 (Homo sapiens, UniProt O60285); conditions: 1 µM; 100% no effect, 0% complete tracer displacement
T26 construct: Full-length kinase ORF (Promega, Madison, WI, USA) cloned in frame with a NanoLuc-vector was transfected into HEK293T cells; host or cells: HEK293T
Method: as §1, §2

NEK3 = target: T27, NEK3 (Homo sapiens, UniProt P51956); conditions: 100% no effect, 0% complete tracer displacement, read-out: Tracer bound
T27 construct: Full-length kinase ORF (Promega, Madison, WI, USA) cloned in frame with a NanoLuc-vector was transfected into HEK293T cells; host or cells: HEK293T
Method: as §1, §2

RPS6KA2 = target: T28, RPS6KA2 (Homo sapiens, UniProt Q15349); conditions: 100% no effect, 0% complete tracer displacement, read-out: Tracer bound
T28 construct: Full-length kinase ORF (Promega, Madison, WI, USA) cloned in frame with a NanoLuc-vector was transfected into HEK293T cells; host or cells: HEK293T
Method: as §1, §2

SIK1 = target: T29, SIK1 (Homo sapiens, UniProt P57059); conditions: 1 µM; 100% no effect, 0% complete tracer displacement
T29 construct: Full-length kinase ORF (Promega, Madison, WI, USA) cloned in frame with a NanoLuc-vector was transfected into HEK293T cells; host or cells: HEK293T
Method: as §1, §2

MAP4K5 = target: T30, MAP4K5 (Homo sapiens, UniProt Q9Y4K4); conditions: 100% no effect, 0% complete tracer displacement, read-out: Tracer bound
T30 construct: Full-length kinase ORF (Promega, Madison, WI, USA) cloned in frame with a NanoLuc-vector was transfected into HEK293T cells; host or cells: HEK293T
Method: as §1, §2

CNC(=O)c1cc(Oc2ccc(NC(=O)Nc3cc(C(C)(C)C)on3)cc2)ccn1 [MA68, reference compound]
Tracer bound (BTK): 120.0% | remaining activity at 1 µM (TNK2): 116% | remaining activity at 1 µM (FGFR4): 86.5% | remaining activity at 1 µM (NEK9): 109% | remaining activity at 1 µM (WEE2): 102% | remaining activity at 1 µM (STK3): 99.3% | Tracer bound (CSNK1G2): 95.1% | remaining activity at 1 µM (MAP4K2): 107% | Tracer bound (TYK2): 103.2% | remaining activity at 1 µM (CDK5-CDK5R2): 86.1% | remaining activity at 1 µM (RPS6KA3): 118% | Tracer bound (IRAK4): 94.3% | remaining activity at 1 µM (LIMK2): 88.5% | remaining activity at 1 µM (STK36): 108% | remaining activity at 1 µM (PRKCD-PMA): 113% | remaining activity at 1 µM (MLTK): 15.3% | Tracer bound (CDK14-CCNY): 42.0% | remaining activity at 1 µM (PRKACB): 99.6% | remaining activity at 1 µM (ERN1): 117% | remaining activity at 1 µM (MUSK): 6% | remaining activity at 1 µM (CSNK2A2): 110% | remaining activity at 1 µM (PHKG1): 87.3% | remaining activity at 1 µM (TRKA): 28.6% | remaining activity at 1 µM (DCLK3): 113% | remaining activity at 1 µM (SRMS): 94.4% | Tracer bound (NUAK1): 120.0% | remaining activity at 1 µM (NEK3): 120% | remaining activity at 1 µM (RPS6KA2): 116% | Tracer bound (SIK1): 110.5% | remaining activity at 1 µM (MAP4K5): 96.3%
